Test results from ChEMBL document CHEMBL1146703, “Mannopeptimycin esters and carbonates, potent antibiotic agents against drug-resistant bacteria” (2004).
≈ marks a conversion by molar mass, not a printed value.

Experiments:
Enterococcus faecalis = assay: Antibacterial activity against Enterococcus faecalis; format: functional
Escherichia coli = assay: Antibacterial activity against Escherichia coli at </=64 ug/mL; No activity; format: functional, organism-based
Staphylococcus aureus = assay: Antibacterial activity against Staphylococcus aureus; format: functional

Structure (SMILES)	MIC (Enterococcus faecalis) [µg/mL]	MIC (Escherichia coli)	MIC (Staphylococcus aureus) [µg/mL]
C[C@@H](c1ccccc1)[C@@H]1NC(=O)CNC(=O)[C@H](CO)NC(=O)[C@@H]([C@@H](O)[C@@H]2CNC(N)N2[C@H]2O[C@H](CO)[C@@H](O)[C@H](O)[C@@H]2O)NC(=O)[C@H]([C@@H](O)[C@@H]2CNC(N)N2)NC(=O)[C@@H](Cc2ccc(O[C@H]3O[C@H](CO)[C@@H](O[C@H]4O[C@H](COC(=O)CCC5CCCC5)[C@@H](O)[C@H](O)[C@@H]4O)[C@H](O)[C@@H]3O)cc2)NC1=O (stereo not given in full)	4 (≈ 2.81 µM)	No activity	1 (≈ 0.702 µM)
CCCC(CCC)C(=O)OC[C@@H]1NC(=O)[C@@H]([C@@H](O)[C@@H]2CNC(N)N2[C@H]2O[C@H](CO)[C@@H](O)[C@H](O)[C@@H]2O)NC(=O)[C@H]([C@@H](O)[C@@H]2CNC(N)N2)NC(=O)[C@@H](Cc2ccc(O[C@H]3O[C@H](CO)[C@@H](O[C@H]4O[C@H](CO)[C@@H](O)[C@H](O)[C@@H]4O)[C@H](O)[C@@H]3O)cc2)NC(=O)[C@H]([C@@H](C)c2ccccc2)NC(=O)CNC1=O (stereo not given in full)		No activity	
C[C@@H](c1ccccc1)[C@@H]1NC(=O)CNC(=O)[C@H](CO)NC(=O)[C@@H]([C@@H](O)[C@@H]2CNC(N)N2[C@H]2O[C@H](COC(=O)Cc3ccccc3)[C@@H](O)[C@H](O)[C@@H]2O)NC(=O)[C@H]([C@@H](O)[C@@H]2CNC(N)N2)NC(=O)[C@@H](Cc2ccc(O[C@H]3O[C@H](CO)[C@@H](O[C@H]4O[C@H](CO)[C@@H](O)[C@H](O)[C@@H]4O)[C@H](O)[C@@H]3O)cc2)NC1=O (stereo not given in full)		No activity	
CCCCCCC(=O)OC[C@@H]1NC(=O)[C@@H]([C@@H](O)[C@@H]2CNC(N)N2[C@H]2O[C@H](CO)[C@@H](O)[C@H](O)[C@@H]2O)NC(=O)[C@H]([C@@H](O)[C@@H]2CNC(N)N2)NC(=O)[C@@H](Cc2ccc(O[C@H]3O[C@H](CO)[C@@H](O[C@H]4O[C@H](CO)[C@@H](O)[C@H](O)[C@@H]4O)[C@H](O)[C@@H]3O)cc2)NC(=O)[C@H]([C@@H](C)c2ccccc2)NC(=O)CNC1=O (stereo not given in full)		No activity	
CCCCCCC(=O)OC[C@H]1O[C@H](N2C(N)NC[C@H]2[C@H](O)[C@H]2NC(=O)[C@H]([C@@H](O)[C@@H]3CNC(N)N3)NC(=O)[C@@H](Cc3ccc(O[C@H]4O[C@H](CO)[C@@H](O[C@H]5O[C@H](CO)[C@@H](O)[C@H](O)[C@@H]5O)[C@H](O)[C@@H]4O)cc3)NC(=O)[C@H]([C@@H](C)c3ccccc3)NC(=O)CNC(=O)[C@H](CO)NC2=O)[C@@H](O)[C@@H](O)[C@@H]1O (stereo not given in full)	> 64	No activity	> 64
CCCCCC(=O)OC[C@H]1O[C@H](N2C(N)NC[C@H]2[C@H](O)[C@H]2NC(=O)[C@H]([C@@H](O)[C@@H]3CNC(N)N3)NC(=O)[C@@H](Cc3ccc(O[C@H]4O[C@H](CO)[C@@H](O[C@H]5O[C@H](CO)[C@@H](O)[C@H](O)[C@@H]5O)[C@H](O)[C@@H]4O)cc3)NC(=O)[C@H]([C@@H](C)c3ccccc3)NC(=O)CNC(=O)[C@H](CO)NC2=O)[C@@H](O)[C@@H](O)[C@@H]1O (stereo not given in full)	> 64	No activity	> 64
C[C@@H](c1ccccc1)[C@@H]1NC(=O)CNC(=O)[C@H](CO)NC(=O)[C@@H]([C@@H](O)[C@@H]2CNC(N)N2[C@H]2O[C@H](COC(=O)CCC3CCCC3)[C@@H](O)[C@H](O)[C@@H]2O)NC(=O)[C@H]([C@@H](O)[C@@H]2CNC(N)N2)NC(=O)[C@@H](Cc2ccc(O[C@H]3O[C@H](CO)[C@@H](O[C@H]4O[C@H](CO)[C@@H](O)[C@H](O)[C@@H]4O)[C@H](O)[C@@H]3O)cc2)NC1=O (stereo not given in full)	> 64	No activity	> 64
C[C@@H](c1ccccc1)[C@@H]1NC(=O)CNC(=O)[C@H](COC(=O)Cc2ccccc2)NC(=O)[C@@H]([C@@H](O)[C@@H]2CNC(N)N2[C@H]2O[C@H](CO)[C@@H](O)[C@H](O)[C@@H]2O)NC(=O)[C@H]([C@@H](O)[C@@H]2CNC(N)N2)NC(=O)[C@@H](Cc2ccc(O[C@H]3O[C@H](CO)[C@@H](O[C@H]4O[C@H](CO)[C@@H](O)[C@H](O)[C@@H]4O)[C@H](O)[C@@H]3O)cc2)NC1=O (stereo not given in full)		No activity	
C[C@@H](c1ccccc1)[C@@H]1NC(=O)CNC(=O)[C@H](CO)NC(=O)[C@@H]([C@@H](O)[C@@H]2CNC(N)N2[C@H]2O[C@H](CO)[C@@H](O)[C@H](O)[C@@H]2O)NC(=O)[C@H]([C@@H](O)[C@@H]2CNC(N)N2)NC(=O)[C@@H](Cc2ccc(O[C@H]3O[C@H](COC(=O)CCC4CCCC4)[C@@H](O[C@H]4O[C@H](CO)[C@@H](O)[C@H](O)[C@@H]4O)[C@H](O)[C@@H]3O)cc2)NC1=O (stereo not given in full)	8 (≈ 5.62 µM)	No activity	2 (≈ 1.4 µM)
CCCC(CCC)C(=O)OC[C@H]1O[C@H](N2C(N)NC[C@H]2[C@H](O)[C@H]2NC(=O)[C@H]([C@@H](O)[C@@H]3CNC(N)N3)NC(=O)[C@@H](Cc3ccc(O[C@H]4O[C@H](CO)[C@@H](O[C@H]5O[C@H](CO)[C@@H](O)[C@H](O)[C@@H]5O)[C@H](O)[C@@H]4O)cc3)NC(=O)[C@H]([C@@H](C)c3ccccc3)NC(=O)CNC(=O)[C@H](CO)NC2=O)[C@@H](O)[C@@H](O)[C@@H]1O (stereo not given in full)		No activity	
C[C@@H](c1ccccc1)[C@@H]1NC(=O)CNC(=O)[C@H](CO)NC(=O)[C@@H]([C@@H](O)[C@@H]2CNC(N)N2[C@H]2O[C@H](CO)[C@@H](O)[C@H](O)[C@@H]2O)NC(=O)[C@H]([C@@H](O)[C@@H]2CNC(N)N2)NC(=O)[C@@H](Cc2ccc(O[C@H]3O[C@H](CO)[C@@H](O[C@H]4O[C@H](CO)[C@@H](O)[C@H](O)[C@@H]4O)[C@H](O)[C@@H]3O)cc2)NC1=O (stereo not given in full)	> 64	No activity	> 64
C[C@@H](c1ccccc1)[C@@H]1NC(=O)CNC(=O)[C@H](CO)NC(=O)[C@@H]([C@@H](O)[C@@H]2CNC(N)N2[C@H]2O[C@H](COC(=O)C(c3ccccc3)c3ccccc3)[C@@H](O)[C@H](O)[C@@H]2O)NC(=O)[C@H]([C@@H](O)[C@@H]2CNC(N)N2)NC(=O)[C@@H](Cc2ccc(O[C@H]3O[C@H](CO)[C@@H](O[C@H]4O[C@H](CO)[C@@H](O)[C@H](O)[C@@H]4O)[C@H](O)[C@@H]3O)cc2)NC1=O (stereo not given in full)	> 64	No activity	> 64
C[C@@H](c1ccccc1)[C@@H]1NC(=O)CNC(=O)[C@H](COC(=O)C(c2ccccc2)c2ccccc2)NC(=O)[C@@H]([C@@H](O)[C@@H]2CNC(N)N2[C@H]2O[C@H](CO)[C@@H](O)[C@H](O)[C@@H]2O)NC(=O)[C@H]([C@@H](O)[C@@H]2CNC(N)N2)NC(=O)[C@@H](Cc2ccc(O[C@H]3O[C@H](CO)[C@@H](O[C@H]4O[C@H](CO)[C@@H](O)[C@H](O)[C@@H]4O)[C@H](O)[C@@H]3O)cc2)NC1=O (stereo not given in full)	> 64	No activity	> 64
CCCCCC(=O)OC[C@@H]1NC(=O)[C@@H]([C@@H](O)[C@@H]2CNC(N)N2[C@H]2O[C@H](CO)[C@@H](O)[C@H](O)[C@@H]2O)NC(=O)[C@H]([C@@H](O)[C@@H]2CNC(N)N2)NC(=O)[C@@H](Cc2ccc(O[C@H]3O[C@H](CO)[C@@H](O[C@H]4O[C@H](CO)[C@@H](O)[C@H](O)[C@@H]4O)[C@H](O)[C@@H]3O)cc2)NC(=O)[C@H]([C@@H](C)c2ccccc2)NC(=O)CNC1=O (stereo not given in full)		No activity	
